Results: the supplement of paper PMC10307832

How the values were obtained:
Assay in all cases: relative viability (nuclei count vs DMSO), 5 days (fraction); higher = more cells survive
Sulindac + Lapatinib = compound: CC1=C(CC(=O)O)c2cc(F)ccc2/C1=C\c1ccc([S+](C)[O-])cc1 [Sulindac] + CS(=O)(=O)CCNCc1ccc(-c2ccc3ncnc(Nc4ccc(OCc5cccc(F)c5)c(Cl)c4)c3c2)o1 [Lapatinib] (partner 2 µM)
Summary of the method: (§1)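 Each reported value is a median over duplicate plates. It expresses relative viability: treated-well nuclei count divided by vehicle-well nuclei count. Lung cancer cell lines in 1536-well plates were dosed by pin tool a day after seeding, alone with one drug or with a fixed anchor-drug dose plus five library-drug doses (not always all listed) in √10 steps, and nuclei were counted after 5 days.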

5-Fluorouracil + OSI-027 = compound: O=c1[nH]cc(F)c(=O)[nH]1 [5-Fluorouracil] + COc1cccc2cc(-c3nc([C@H]4CC[C@H](C(=O)O)CC4)n4ncnc(N)c34)[nH]c12 [OSI-027] (partner 0.5 µM)
Summary of the method: as §1

Sulindac + Luminespib = compound: CC1=C(CC(=O)O)c2cc(F)ccc2/C1=C\c1ccc([S+](C)[O-])cc1 [Sulindac] + CCNC(=O)c1noc(-c2cc(C(C)C)c(O)cc2O)c1-c1ccc(CN2CCOCC2)cc1 [Luminespib] (partner 0.01 µM)
Summary of the method: as §1

[1] = compound: CN[C@@H]1C[C@H]2O[C@@](C)([C@@H]1OC)n1c3ccccc3c3c4c(c5c6ccccc6n2c5c31)C(=O)NC4 [Staurosporine] + CC1(C)CCC(c2ccc(Cl)cc2)=C(CN2CCN(c3ccc(C(=O)NS(=O)(=O)c4ccc(N[C@H](CCN5CCOCC5)CSc5ccccc5)c(S(=O)(=O)C(F)(F)F)c4)cc3)CC2)C1 [Navitoclax] (partner 0.5 µM)
Summary of the method: as §1

| Cell Line | relative viability (Sulindac + Lapatinib; first compound 0.08 µM) | relative viability (Sulindac + Lapatinib; first compound 0.253 µM) | relative viability (Sulindac + Lapatinib; first compound 0.8 µM) | relative viability (Sulindac + Lapatinib; first compound 2.53 µM) | relative viability (Sulindac + Lapatinib; first compound 8 µM) | relative viability (5-Fluorouracil + OSI-027; first compound 0.02 µM) | relative viability (5-Fluorouracil + OSI-027; first compound 0.2 µM) | relative viability (5-Fluorouracil + OSI-027; first compound 0.6325 µM) | relative viability (5-Fluorouracil + OSI-027; first compound 2 µM) | relative viability (Sulindac + Luminespib; first compound 0.08 µM) | relative viability (Sulindac + Luminespib; first compound 0.253 µM) | relative viability (Sulindac + Luminespib; first compound 0.8 µM) | relative viability (Sulindac + Luminespib; first compound 2.53 µM) | relative viability (Sulindac + Luminespib; first compound 8 µM) | relative viability ([1]; first compound 0.005 µM) | relative viability ([1]; first compound 0.01581 µM) | relative viability ([1]; first compound 0.05 µM) | relative viability ([1]; first compound 0.1581 µM) | relative viability ([1]; first compound 0.5 µM) |
| --- | --- | --- | --- | --- | --- | --- | --- | --- | --- | --- | --- | --- | --- | --- | --- | --- | --- | --- | --- |
| NCI-H1793 | 0.731 | 0.778 | 0.533 | 0.795 | 0.787 | 0.283 | 0.369 | 0.303 | 0.207 | 0.188 | 0.168 | 0.163 | 0.169 | 0.265 | 0.573 | 0.238 | 0.326 | 0.23 | 0.264 |
| NCI-H1734 | 1.06 | 1.08 | 0.893 | 0.986 | 1.44 | 0.58 | 0.655 | 0.513 | 0.398 | 0.146 | 0.186 | – | 0.203 | 0.23 | 0.921 | 0.363 | 0.195 | 0.105 | 0.0733 |
| LU99A | 1.33 | 1.11 | 0.854 | 0.869 | 1.01 | 0.262 | 0.272 | 0.311 | 0.223 | 0.164 | 0.315 | 0.196 | 0.243 | 0.263 | 0.876 | 0.589 | 0.359 | 0.211 | 0.128 |
| RERF-LC-KJ | 0.888 | 0.934 | 0.685 | 0.862 | 0.943 | 0.609 | 0.553 | 0.543 | 0.471 | 1.06 | 1.47 | 1.18 | 1.23 | 1.64 | 1.14 | 0.665 | 0.479 | 0.244 | 0.236 |
| NCI-H2087 | 1.28 | 1.04 | 1.27 | 1.08 | 1.22 | 0.555 | 0.563 | 0.464 | 0.346 | 0.196 | 0.164 | – | 0.148 | 0.167 | 0.744 | 0.679 | 0.374 | 0.133 | 0.103 |
| NCI-H2170 | 0.249 | 0.282 | 0.251 | 0.272 | 0.286 | 0.681 | 0.594 | 0.459 | 0.37 | 0.782 | 0.755 | 0.941 | 0.671 | 0.627 | 0.708 | 0.376 | 0.421 | 0.219 | 0.189 |
| NCI-H1395 | 1.2 | 1.08 | 1.01 | 0.8 | 1.15 | 0.505 | 0.738 | 0.579 | 0.684 | 0.713 | 0.68 | 0.611 | 0.709 | 0.643 | 1.05 | 0.495 | 0.458 | 0.327 | 0.301 |
| NCI-H2228 | 1.4 | 1.3 | 0.575 | 1 | 0.917 | 0.404 | 0.55 | 0.332 | 0.329 | 0.115 | 0.129 | 0.131 | 0.185 | 0.163 | 0.6 | 0.399 | 0.165 | 0.127 | 0.0586 |
| H3255 | 0.206 | 0.217 | 0.42 | 0.21 | 0.276 | 0.609 | 0.686 | 0.699 | 0.574 | 0.85 | 0.958 | 0.847 | 0.954 | 1.05 | 0.172 | 0.102 | 0.112 | 0.0846 | 0.0541 |
| HCC-15 | 1.06 | 0.87 | 0.763 | 0.801 | 0.914 | 0.781 | 0.718 | 0.442 | 0.311 | 0.588 | 0.351 | 0.304 | 0.431 | 0.389 | 0.677 | – | 0.392 | 0.282 | 0.183 |
| NCI-H838 | 1.21 | 1.02 | 0.638 | 0.972 | 1.03 | 0.42 | 0.373 | 0.252 | 0.209 | 0.231 | 0.277 | 0.243 | 0.211 | 0.307 | 0.307 | 0.22 | 0.203 | 0.161 | 0.113 |
| NCI-H2023 | 0.708 | 0.733 | 0.741 | 0.774 | 1.09 | 0.369 | 0.176 | 0.103 | 0.0879 | 0.923 | 0.845 | – | 0.649 | 0.92 | 0.715 | 0.598 | 0.257 | 0.159 | 0.0924 |
| HCC-44 | 1.14 | 1.05 | 0.919 | 1.05 | 1.15 | 0.664 | 0.479 | 0.483 | 0.31 | 0.969 | 1.08 | – | 1.05 | 1.25 | 0.867 | 0.28 | 0.215 | 0.185 | 0.13 |
| COR-L23 | 1.58 | 1.16 | – | 0.976 | 1.12 | 0.794 | 0.539 | 0.323 | 0.245 | 0.903 | 0.555 | 0.508 | 0.739 | 0.952 | 0.511 | 0.3 | 0.17 | 0.0578 | 0.0582 |
| EMC-BAC-2 | 0.945 | 0.973 | 0.682 | 0.88 | 0.93 | 0.363 | 0.407 | 0.376 | 0.361 | 1.04 | 1.23 | 0.802 | 1.23 | 1.22 | 1.1 | 0.777 | 0.172 | 0.153 | 0.127 |
| LK-2 | 1.05 | 0.835 | – | – | 1.15 | 0.196 | 0.188 | 0.199 | 0.165 | 0.2 | 0.18 | – | – | 0.167 | 0.965 | 0.54 | 0.456 | 0.109 | 0.0967 |
| NCI-H460 | 1.97 | 1.38 | – | 1.12 | 1.19 | 0.803 | 0.35 | 0.0996 | 0.0548 | 0.0451 | 0.0347 | 0.0378 | 0.0255 | 0.0267 | 0.949 | 0.87 | 0.232 | 0.0102 | 0.0078 |
